Source: patent publication US20240269139A1, “COMPOUNDS FOR TARGETED PROTEIN DEGRADATION OF KINASES” (DANA-FARBER CANCER INSTITUTE, INC., priority 2020, published 2024)
Several values for one entry are separate records, joined by “and”; a condition that tells them apart may be missing. Equal entries are not always repeated. Where two headings read alike, the source gives them in different places.

What was measured:
Format in all cases: cell-based
[1] = target: T1, protein kinases (human kinome) (Homo sapiens, UniProt O14965)
T1 sequence (O14965 1-403): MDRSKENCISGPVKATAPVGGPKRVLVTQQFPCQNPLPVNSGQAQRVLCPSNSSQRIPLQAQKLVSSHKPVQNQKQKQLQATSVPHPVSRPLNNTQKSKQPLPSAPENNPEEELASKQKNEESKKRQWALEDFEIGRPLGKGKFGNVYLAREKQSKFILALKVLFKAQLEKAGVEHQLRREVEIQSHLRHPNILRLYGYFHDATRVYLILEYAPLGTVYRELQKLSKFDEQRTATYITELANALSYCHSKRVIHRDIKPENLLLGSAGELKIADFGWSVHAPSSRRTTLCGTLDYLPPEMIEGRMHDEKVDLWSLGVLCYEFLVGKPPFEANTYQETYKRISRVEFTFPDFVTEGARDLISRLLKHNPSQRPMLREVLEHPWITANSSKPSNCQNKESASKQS

[2] = target: T2, protein kinases (human kinome) (Homo sapiens, UniProt O75385); conditions: for logFC: ULK1 (O75385) protein abundance, degrader vs DMSO, down; for logFC ULK1: ULK1 O75385
T2 sequence (O75385 1-1050): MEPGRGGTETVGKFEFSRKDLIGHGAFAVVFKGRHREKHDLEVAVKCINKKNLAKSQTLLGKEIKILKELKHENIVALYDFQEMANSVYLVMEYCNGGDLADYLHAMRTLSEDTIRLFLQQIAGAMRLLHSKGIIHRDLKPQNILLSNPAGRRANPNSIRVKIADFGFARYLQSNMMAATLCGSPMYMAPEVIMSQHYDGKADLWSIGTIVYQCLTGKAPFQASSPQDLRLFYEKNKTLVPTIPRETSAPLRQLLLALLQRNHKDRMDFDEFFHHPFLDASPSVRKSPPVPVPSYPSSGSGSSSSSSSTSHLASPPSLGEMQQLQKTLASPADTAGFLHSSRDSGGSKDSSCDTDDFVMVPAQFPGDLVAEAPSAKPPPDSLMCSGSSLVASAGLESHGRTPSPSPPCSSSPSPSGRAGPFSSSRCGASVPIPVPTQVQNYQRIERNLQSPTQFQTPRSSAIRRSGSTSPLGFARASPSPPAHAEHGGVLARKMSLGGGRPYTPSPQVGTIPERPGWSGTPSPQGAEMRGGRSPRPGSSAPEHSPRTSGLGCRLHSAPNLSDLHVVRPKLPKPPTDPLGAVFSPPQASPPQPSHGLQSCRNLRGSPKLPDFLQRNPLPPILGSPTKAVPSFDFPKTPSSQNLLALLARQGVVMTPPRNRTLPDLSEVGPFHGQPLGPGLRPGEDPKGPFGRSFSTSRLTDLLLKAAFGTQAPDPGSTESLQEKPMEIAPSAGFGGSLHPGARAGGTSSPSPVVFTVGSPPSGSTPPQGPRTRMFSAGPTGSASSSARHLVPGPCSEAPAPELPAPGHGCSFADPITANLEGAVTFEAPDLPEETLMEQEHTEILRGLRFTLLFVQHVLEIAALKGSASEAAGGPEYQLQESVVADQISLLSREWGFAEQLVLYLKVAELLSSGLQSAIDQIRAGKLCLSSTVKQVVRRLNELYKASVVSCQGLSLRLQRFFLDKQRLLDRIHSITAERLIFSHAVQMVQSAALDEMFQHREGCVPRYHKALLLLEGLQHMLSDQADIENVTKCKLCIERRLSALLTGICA

[3] = target: protein kinases (human kinome) (Homo sapiens, UniProt P11802)
protein kinases (human kinome) (Homo sapiens, UniProt P11802), sequence (P11802 whole entry): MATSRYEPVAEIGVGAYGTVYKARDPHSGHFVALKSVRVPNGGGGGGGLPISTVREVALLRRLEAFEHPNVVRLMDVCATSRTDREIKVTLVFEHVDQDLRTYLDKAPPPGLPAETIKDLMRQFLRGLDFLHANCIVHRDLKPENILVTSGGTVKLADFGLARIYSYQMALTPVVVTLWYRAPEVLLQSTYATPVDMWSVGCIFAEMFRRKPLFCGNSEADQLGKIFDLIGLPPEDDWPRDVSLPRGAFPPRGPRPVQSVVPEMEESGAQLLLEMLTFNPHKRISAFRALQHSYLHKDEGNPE

[4] = target: protein kinases (human kinome) (Homo sapiens, UniProt P16591); conditions: for logFC of FER (P16591-1): down; for logFC of FER: FER P16591-1
protein kinases (human kinome) (Homo sapiens, UniProt P16591), sequence (P16591 whole entry): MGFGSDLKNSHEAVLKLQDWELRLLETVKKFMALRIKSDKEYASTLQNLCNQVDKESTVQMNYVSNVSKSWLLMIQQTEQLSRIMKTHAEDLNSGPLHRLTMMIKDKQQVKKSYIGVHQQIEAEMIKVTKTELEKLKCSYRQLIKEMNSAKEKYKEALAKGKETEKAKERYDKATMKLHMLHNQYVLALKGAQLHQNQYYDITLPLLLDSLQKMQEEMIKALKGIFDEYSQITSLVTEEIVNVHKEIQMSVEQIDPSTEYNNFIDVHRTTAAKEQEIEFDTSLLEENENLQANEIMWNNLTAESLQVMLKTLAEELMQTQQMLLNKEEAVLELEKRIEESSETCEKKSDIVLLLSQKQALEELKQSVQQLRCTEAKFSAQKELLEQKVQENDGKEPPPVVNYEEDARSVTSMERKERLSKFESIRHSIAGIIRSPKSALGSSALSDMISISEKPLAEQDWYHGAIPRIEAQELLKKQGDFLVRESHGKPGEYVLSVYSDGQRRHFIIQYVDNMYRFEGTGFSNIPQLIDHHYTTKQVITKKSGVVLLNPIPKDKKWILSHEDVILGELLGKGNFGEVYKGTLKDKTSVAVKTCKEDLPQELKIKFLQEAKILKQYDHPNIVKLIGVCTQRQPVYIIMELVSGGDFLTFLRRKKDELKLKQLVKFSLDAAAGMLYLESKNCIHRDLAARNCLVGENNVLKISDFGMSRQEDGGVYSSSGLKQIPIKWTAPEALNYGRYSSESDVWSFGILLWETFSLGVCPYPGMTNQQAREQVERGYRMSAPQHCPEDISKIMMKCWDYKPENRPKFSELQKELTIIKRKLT

For `CC(C)S(=O)(=O)c1ccccc1Nc1nc(Nc2ccc(N3CCN(CCOCCNC(=O)CNc4cccc5c4C(=O)N(C4CCC(=O)NC4=O)C5=O)CC3)cc2)ncc1Cl` (centres unmarked) [SK.3.91], the “logFC AURKA (O14965)” value ([1]; Experiment wp160, 2 hr) was −0.8456, the “logFC AURKA (O14965)” value ([1]; Experiment wp172) was −2.048 and the “logFC AURKA (O14965)” value ([1]; experiment wp016) was −1.908. The “logFC AURKA (O14965)” value ([1]; experiment wp016, 1 uM) was −3.024, the “logFC AURKA (O14965)” value ([1]; experiment wp103) was −1.587 and the “logFC AURKA (O14965)” value ([1]; experiment wp105) was −1.837. The “logFC AURKA (O14965)” value ([1]; experiment wp107) was −3.069, the “logFC AURKA (O14965)” value ([1]; experiment wp114) was −1.228 and the “logFC AURKA (O14965)” value ([1]; experiment wp133, 1 hr) was −1.329. For the same molecule, the “logFC AURKA (O14965)” value ([1]; experiment wp133, 2 hr) was −2.092, the “logFC AURKA (O14965)” value ([1]; experiment wp133, 4 hr) was −3.745 and the “logFC AURKA (O14965)” value ([1]; experiment wp160, 1 hr) was −0.547. The “logFC AURKA (O14965)” value ([1]; experiment wp160, 4 hr) was −1.391, the logFC ([2]; 1 hr) was −1.472 and −1.466 and the logFC ([2]; 2 hr) was −2.779 and −2.583. For the same molecule, the “logFC ULK1” value ([2]; experiment wp103) was −1.332, the “logFC ULK1” value ([2]; experiment wp105) was −1.712 and the “logFC ULK1” value ([2]; experiment wp107) was −1.162. For the same molecule, the “logFC ULK1” value ([2]; experiment wp133, 1 hr) was −1.472, the “logFC ULK1” value ([2]; experiment wp133, 2 hr) was −2.779 and the “logFC ULK1” value ([2]; experiment wp133, 4 hr) was −3.572. For the same molecule, the “logFC ULK1” value ([2]; experiment wp160, 1 hr) was −1.466, the “logFC ULK1” value ([2]; experiment wp160, 2 hr) was −2.583 and the “logFC ULK1” value ([2]; experiment wp160, 4 hr) was −3.085. For the same molecule, the “logFC CDK4 (P11802)” value ([3]; Experiment wp160, 2 hr) was −0.9104, the “logFC CDK4 (P11802)” value ([3]; experiment wp016) was −1.161 and the “logFC CDK4 (P11802)” value ([3]; experiment wp016, 1 uM) was −1.429. For the same molecule, the “logFC CDK4 (P11802)” value ([3]; experiment wp103) was −1.029, the “logFC CDK4 (P11802)” value ([3]; experiment wp105) was −0.7995 and the “logFC CDK4 (P11802)” value ([3]; experiment wp107) was −1.272. For the same molecule, the “logFC CDK4 (P11802)” value ([3]; experiment wp114) was −0.5605, the “logFC CDK4 (P11802)” value ([3]; experiment wp133, 2 hr) was −0.7484 and the “logFC CDK4 (P11802)” value ([3]; experiment wp133, 4 hr) was −1.292. For the same molecule, the “logFC CDK4 (P11802)” value ([3]; experiment wp160, 1 hr) was −0.4329, the “logFC CDK4 (P11802)” value ([3]; experiment wp160, 4 hr) was −1.353 and the “logFC of FER (P16591-1)” value ([4]; Experiment wp016, 1 uM) was −3.321. The “logFC of FER (P16591-1)” value ([4]; Experiment wp016) was −2.645, the “logFC of FER (P16591-1)” value ([4]; Experiment wp103) was −2.81 and the “logFC of FER (P16591-1)” value ([4]; Experiment wp105) was −2.857. For the same molecule, the “logFC of FER (P16591-1)” value ([4]; Experiment wp107) was −2.657, the “logFC of FER (P16591-1)” value ([4]; Experiment wp133, 1 hr) was −1.132 and the “logFC of FER (P16591-1)” value ([4]; Experiment wp133, 2 hr) was −2.153. For the same molecule, the “logFC of FER (P16591-1)” value ([4]; Experiment wp133, 4 hr) was −2.426, the “logFC of FER (P16591-1)” value ([4]; Experiment wp160, 1 hr) was −0.8534 and the “logFC of FER (P16591-1)” value ([4]; Experiment wp160, 2 hr) was −1.88. The “logFC of FER (P16591-1)” value ([4]; Experiment wp160, 4 hr) was −1.987, the “logFC of FER” value ([4]; experiment wp016) was −2.646 and the “logFC of FER” value ([4]; experiment wp016, 1 uM) was −3.321. The “logFC of FER” value ([4]; experiment wp103) was −2.81, the “logFC of FER” value ([4]; experiment wp105) was −2.857 and the “logFC of FER” value ([4]; experiment wp107) was −2.657. The “logFC of FER” value ([4]; experiment wp133, 1 hr) was −1.132, the “logFC of FER” value ([4]; experiment wp133, 2 hr) was −2.153 and the “logFC of FER” value ([4]; experiment wp133, 4 hr) was −2.426. The “logFC of FER” value ([4]; experiment wp160, 1 hr) was −0.8534 and the “logFC of FER” value ([4]; experiment wp160, 2 hr) was −1.88.
